Measurements published in article PMC10696402 (The Journal of Biological Chemistry, 2023).
“And” between values parts separate entries of the source, which are not always exact repeats. Equal entries are not always repeated. “Also recorded” adds a separate entry of the source. Where two headings read alike, the source gives them in different places.

Assays:
CYP3A [1] = conditions: monkeys coadministered quinidine; cited from earlier work
[2] = system: CYP2C9 Phe114 substituted with Ile and Leu; conditions: cited from earlier work
WT CYP2C9 [3] = target: T1, WT CYP2C9 (Homo sapiens, UniProt P11712); experiment: Diclofenac 4′-hydroxylation kinetics, recombinant WT CYP2C9; conditions: for CLint, diclofenac 4′-hydroxylation: Vmax/Km; for Km at 7 min: human, pH 7.4, Km, diclofenac 4′-hydroxylation
Description: (§1) Incubations were performed in phosphate buffer (100 μl; 0.1 M, pH 7.4) and contained WT or mutant CYP2C9 protein, 3 pmol/ml. […] After preincubation at 37 °C for 5 min, reactions were initiated by the addition of NADPH (1 mM final concentration) containing MgCl2 (4 mM). Following incubation at 37 °C for 30 min, reactions were terminated by the addition of 11.6 M HClO4 (1 μl). Samples were cooled on ice and then centrifuged at 5000g, 4 °C for 10 min. An aliquot (20 μl) of the supernatant fraction was injected into the HPLC column. […] The mobile phase comprised 25 mM phosphate buffer containing 0.02% triethylamine and 5% acetonitrile (phase A) and acetonitrile (phase B), delivered at a flow rate of 1 ml/min. […] Given the favorable sensitivities of these assays, rates of metabolite formation below the lower limits of quantification may be considered negligible.
(§2) The mobile phase comprised 10 mM ammonium formate (pH 3) in 5% acetonitrile (mobile phase A) and acetonitrile (mobile phase B) delivered at a flow rate of 1 ml/min.
Kinetic data are presented as the mean (± SD) of four separate experiments. Unless otherwise stated, metabolite formation followed sigmoidal kinetics, which was confirmed by comparison of goodness-of-fit parameters from fitting rate of metabolite formation versus substrate concentration data with the equations for empirical kinetic models (Michaelis–Menten, substrate inhibition, biphasic, and positive cooperativity) using the program GraphPad Prism version 7.01 (https://www.graphpad.com, GraphPad Software, Inc). […] CLint, which reflects reaction efficiency, was calculated as Vmax/Km.

CYP2C9 Lys206Ala mutant [4] = target: T2, CYP2C9 Lys206Ala mutant (Homo sapiens, UniProt P11712, K206A); experiment: Diclofenac 4′-hydroxylation kinetics, Lys206Ala mutant; conditions: for CLint, diclofenac 4′-hydroxylation: Vmax/Km; for Km at 7 min: human, pH 7.4, Km, diclofenac 4′-hydroxylation
Description: (§3) Mutations were confirmed by DNA sequencing using an Applied Biosystems 3130xl Genetic Analyzer with BigDye Terminator v3.1 Chemistry (Applied Biosystems).
(§4) WT and mutant CYP2C9 proteins and NADPH-CPR were coexpressed according to Boye et al. ([61]). Plasmids were transformed into E. coli DH5R competent cells and single isolated colonies were grown by shaking at 37 °C overnight in Luria-Bertani medium containing ampicillin (100 mg/L) and chloramphenicol (50 mg/L). Overnight cultures of each clone were diluted 1:100 in Terrific broth containing 0.2% Bacto Peptone (w/v), ampicillin (100 mg/L), and chloramphenicol (50 mg/L). Cells were grown at 37 °C in a rotary shaker until the absorbance at 600 nm reached 0.7, when δ-aminolevulinic acid and isopropyl-α-D-thiogalactopyroside were added to final concentrations of 0.5 mM and 1 mM, respectively. Cultures were then grown at 30 °C with shaking at 200 rpm for 24 h. Bacterial cells were harvested, and membrane fractions were prepared as described by Gillam et al. ([62]). The P450 content of bacterial membranes was quantified spectrophotometrically using established methods ([63], [64], [65]). CPR content was measured spectrophotometrically as the NADPH-cytochrome c reductase activity ([66]).
as §1, §2
(§5) Kinetic data are presented as the mean (± SD) of four separate experiments. […] CLint, which reflects reaction efficiency, was calculated as Vmax/Km.

CYP3A [5] = conditions: semisimultaneous administration of efavirenz; cited from earlier work
CYP2C9 Lys206Ala mutant [6] = target: T2, CYP2C9 Lys206Ala mutant; experiment: in vitro; conditions: pH 7.4, Km, flurbiprofen 4′-hydroxylation
Description: as §3, §4, §1, §5

WT CYP2C9 [7] = target: T1, WT CYP2C9; conditions: for Vmax, flurbiprofen 4′-hydroxylation / CLint, flurbiprofen 4′-hydroxylation: WT; for CLint, flurbiprofen 4′-hydroxylation: Vmax/Km
Description: (§6) Incubations were performed in phosphate buffer (100 μl; 0.1 M, pH 7.4) and contained WT or mutant CYP2C9 protein, 3 pmol/ml. […] After preincubation at 37 °C for 5 min, reactions were initiated by the addition of NADPH (1 mM final concentration) containing MgCl2 (4 mM). […] Samples were cooled on ice and then centrifuged at 5000g, 4 °C for 10 min. An aliquot (20 μl) of the supernatant fraction was injected into the HPLC column. […] The mobile phase comprised 25 mM phosphate buffer containing 0.02% triethylamine and 5% acetonitrile (phase A) and acetonitrile (phase B), delivered at a flow rate of 1 ml/min. […] Given the favorable sensitivities of these assays, rates of metabolite formation below the lower limits of quantification may be considered negligible.
as §5

WT CYP2C9 [8] = target: T1, WT CYP2C9; experiment: in vitro; conditions: pH 7.4, Km, flurbiprofen 4′-hydroxylation
Description: as §6, §5

CYP2C9 homology model = conditions: homology model based on rabbit CYP2C5 crystal structure; cited from earlier work
CYP2C9 = conditions: cited from earlier work
CYP2C9 Lys206Ala mutant [9] = target: T2, CYP2C9 Lys206Ala mutant; conditions: for Vmax, flurbiprofen 4′-hydroxylation / CLint, flurbiprofen 4′-hydroxylation: Lys206Ala; for CLint, flurbiprofen 4′-hydroxylation: Vmax/Km
Description: as §3, §4, §1, §5

CYP3A4 = system: CYP3A4; set-up: method as in PMID 19752211; conditions: coadministration of gefitinib, CYP3A4-humanized mice; cited from earlier work
[10] = system: CYP2C9 Phe114 substituted with Ile and Leu; conditions: Phe114Ile and Phe114Leu vs WT; cited from earlier work
[11] = healthy volunteers; cited from earlier work
WT CYP2C9 [12] = target: T1, WT CYP2C9; conditions: dapsone 100 μM
Description: Incubations were performed in phosphate buffer (100 μl; 0.1 M, pH 7.4) and contained WT or mutant CYP2C9 protein, 3 pmol/ml. […] After preincubation at 37 °C for 5 min, reactions were initiated by the addition of NADPH (1 mM final concentration) containing MgCl2 (4 mM). Following incubation at 37 °C for 30 min, reactions were terminated by the addition of 11.6 M HClO4 (1 μl). Samples were cooled on ice and then centrifuged at 5000g, 4 °C for 10 min. An aliquot (20 μl) of the supernatant fraction was injected into the HPLC column. […] The mobile phase comprised 25 mM phosphate buffer containing 0.02% triethylamine and 5% acetonitrile (phase A) and acetonitrile (phase B), delivered at a flow rate of 1 ml/min.
The mobile phase comprised 10 mM ammonium formate (pH 3) in 5% acetonitrile (mobile phase A) and acetonitrile (mobile phase B), delivered at a flow rate of 1 ml/min. The initial mobile phase composition was 80% mobile phase A and 20% mobile phase B, which was delivered for 8 min. After this time, the proportion of mobile phase B was increased to 70% over 0.1 min, and then held for 2 min before returning to the initial conditions.
Kinetic data are presented as the mean (± SD) of four separate experiments. Unless otherwise stated, metabolite formation followed sigmoidal kinetics, which was confirmed by comparison of goodness-of-fit parameters from fitting rate of metabolite formation versus substrate concentration data with the equations for empirical kinetic models (Michaelis–Menten, substrate inhibition, biphasic, and positive cooperativity) using the program GraphPad Prism version 7.01 (https://www.graphpad.com, GraphPad Software, Inc).

recombinant CYP2C9 = conditions: cited from earlier work
[13] = Lys206Ala vs WT CYP2C9, − dapsone

## C=C[C@H]1C[N@@]2CC[C@H]1C[C@@H]2[C@@H](O)c1ccnc2ccc(OC)cc12 [quinidine]
CYP3A [1]
  decrease in steady-state plasma concentrations of diclofenac: approximately 50%

## O=C(O)Cc1ccccc1Nc1c(Cl)cccc1Cl [Diclofenac, diclofenac]
[2]
  reduction of CLint for diclofenac 4′-hydroxylation (abolished or reduced): ≥ 89%
WT CYP2C9 [3]; + dapsone 100 μM
  Vmax, diclofenac 4′-hydroxylation: 3.19 ± 0.09 pmol/min/pmol P450
  CLint, diclofenac 4′-hydroxylation: 1.99 ± 0.17 μL/min/pmol P450
  Km at 7 min: 1.6 ± 0.15 µM
WT CYP2C9 [3]; − dapsone
  Km at 7 min: 2.18 ± 0.16 µM
  Vmax, diclofenac 4′-hydroxylation: 5.20 ± 0.13 pmol/min/pmol P450
  CLint, diclofenac 4′-hydroxylation: 2.39 ± 0.16 μL/min/pmol P450
CYP2C9 Lys206Ala mutant [4]; + dapsone 100 μM
  Vmax, diclofenac 4′-hydroxylation: 4.41 ± 0.12 pmol/min/pmol P450
  CLint, diclofenac 4′-hydroxylation: 1.81 ± 0.07 μL/min/pmol P450
  Km at 7 min: 2.45 ± 0.13 µM
CYP2C9 Lys206Ala mutant [4]; − dapsone
  Km at 7 min: 4.05 ± 0.35 µM
  Vmax, diclofenac 4′-hydroxylation: 6.53 ± 0.19 pmol/min/pmol P450
  CLint, diclofenac 4′-hydroxylation: 1.64 ± 0.10 μL/min/pmol P450

## O=C1Nc2ccc(Cl)cc2[C@@](C#CC2CC2)(C(F)(F)F)O1 [efavirenz]
CYP3A [5]
  increase in apparent oral clearance of midazolam: 70%

## C[C@H](C(=O)O)c1ccc(-c2ccccc2)c(F)c1 [Flurbiprofen, S-flurbiprofen]
CYP2C9 Lys206Ala mutant [6]; + dapsone 100 μM
  Km at 30 min: 6.6 ± 0.3 µM
CYP2C9 Lys206Ala mutant [6]; − dapsone
  Km at 30 min: 16.2 ± 0.6 µM
WT CYP2C9 [7]; + dapsone 100 μM
  Vmax, flurbiprofen 4′-hydroxylation: 5.30 ± 0.09 pmol/min/pmol P450
  CLint, flurbiprofen 4′-hydroxylation: 0.946 ± 0.033 μL/min/pmol P450
WT CYP2C9 [7]; − dapsone
  CLint, flurbiprofen 4′-hydroxylation: 0.407 ± 0.01 μL/min/pmol P450
WT CYP2C9 [7]; − dapsone, mean ± SD
  Vmax, flurbiprofen 4′-hydroxylation: 5.05 pmol/min/pmol P450 and 5.05 ± 0.08 pmol/min/pmol P450
WT CYP2C9 [8]; + dapsone 100 μM
  Km at 30 min: 5.6 ± 0.31 µM
WT CYP2C9 [8]; − dapsone, mean ± SD, four experiments
  Km at 30 min: 12.4 ± 0.44 µM
CYP2C9 homology model
  estimate of the shift in the SOM–heme Fe distance of flurbiprofen with dapsone: 0.5 Å
CYP2C9; T1 relaxation rates by NMR
  shift of the 4′-proton of flurbiprofen nearer to the heme Fe in the presence of dapsone: 0.9 Å
CYP2C9
  increase in binding affinity of flurbiprofen in the presence of dapsone: approximately 60%
CYP2C9 Lys206Ala mutant [9]; [13]
  Km for flurbiprofen 4′-hydroxylation, higher than WT: 30%
  Vmax for flurbiprofen 4′-hydroxylation, lower than WT: 37%
  intrinsic clearance (CLint) of flurbiprofen 4′-hydroxylation, lower than WT: approximately 50%
CYP2C9 Lys206Ala mutant [9]; + dapsone 100 μM
  Vmax, flurbiprofen 4′-hydroxylation: 4.27 ± 0.11 pmol/min/pmol P450
  CLint, flurbiprofen 4′-hydroxylation: 0.66 ± 0.03 μL/min/pmol P450
CYP2C9 Lys206Ala mutant [9]; − dapsone
  Vmax, flurbiprofen 4′-hydroxylation: 3.21 ± 0.14 pmol/min/pmol P450
  CLint, flurbiprofen 4′-hydroxylation: 0.20 ± 0.01 μL/min/pmol P450

## COc1cc2ncnc(Nc3ccc(F)c(Cl)c3)c2cc1OCCCN1CCOCC1 [gefitinib]
CYP3A4
  effect on triazolam exposure: significantly reduce

## CC(=O)C[C@@H](c1ccccc1)c1c(O)c2ccccc2oc1=O [S-warfarin]
[10]
  reduction of CLint for S-warfarin 7-hydroxylation (abolished or reduced): ≥ 89%

## Nc1ccc(S(=O)(=O)c2ccc(N)cc2)cc1 [dapsone]
[11]
  increase in flurbiprofen exposure on coadministration of dapsone: 10%
WT CYP2C9 [7]; WT CYP2C9, dapsone 100 μM
  effect of dapsone on Vmax of flurbiprofen 4′-hydroxylation: unaffected; also recorded: without significantly affecting
  increase in catalytic efficiency (CLint) of flurbiprofen 4′-hydroxylation by dapsone: 2.3 fold
  reduction in the Km for flurbiprofen 4′-hydroxylation by dapsone: ~60%
WT CYP2C9 [12]
  decrease in the Km for naproxen demethylation by dapsone: 70%
  increase in Vmax of naproxen demethylation by dapsone: 4.8 fold
  increase in catalytic efficiency (CLint) of naproxen O-demethylation by dapsone: 16.5 fold
Recombinant CYP2C9; WT CYP2C9, earlier study
  increase in Vmax of flurbiprofen 4′-hydroxylation by dapsone: ~60%
Recombinant CYP2C9; flurbiprofen 4′-hydroxylation, naproxen O-demethylation, piroxicam 5′-hydroxylation, confirmed here with naproxen (data not shown)
  dapsone concentration giving maximum activation: 100 µM
